Experimental findings from patent publication US8871789B2, “Method of preventing or treating viral infection” (The United States of America, as represented by the …, priority 2010, dated 2014) are described below.

Assay [1] deals with HSV-1. The assay can be described thus: HSV-1 IE mRNA levels in infected HFF cells. The format is cell-based. The note with it: increasing concentration of DMOG, HFF, FIG. 7. The procedure: FIG. 13 is a line graph showing viral IE (ICP4, ICP27, and ICP22) and control (S15, Sp1, and TBP) mRNA levels in HFF cells treated with DMSO or the indicated concentrations of ML324 for 3 hours and infected with HSV-1 (0.1 PFU per cell) for 3 hours. *P<0.0001, two-way ANOVA with Tukey's post hoc test. Data are means±SEM.
HSV-1 IE mRNA levels of ICP4 and ICP27 decrease in cells infected in the presence of DMOG. Human foreskin fibroblast (HFF) cells were infected with HSV-1 at 0.1 PFU/cell for 3 hrs in the presence of increasing concentrations of DMOG. Cells were harvested and the levels of viral IE (ICP4, ICP27) and cell control (s15) mRNAs were assessed by qRT-PCR.
All experiments were performed as described in Liang et al., Sci. Transl. Med. 5, 167ra5 (2013). N-(3-(dimethylamino)propyl)-4-(8-hydroxyquinolin-6-yl)benzamide (designated ML324) has the following characteristics: N-(3-(dimethylamino)propyl)-4-(8-hydroxyquinolin-6-yl)benzamide (1). LC-MS: rt (min)=3.033; ^1H NMR (400 MHz, DMSO-d6) δ 1.84-1.98 (m, 2H), 2.79 (s, 3H), 2.80 (s, 3H), 3.12 (ddd, J=10.2 Hz, 5.4 Hz and 5.2 Hz, 2H), 3.37 (q, 2H), 7.50 (s, 1H), 7.66 (dd, J=8.2 Hz and 4.3 Hz, 1H), 7.84 (s, 1H), 7.88-7.94 (m, 2H), 7.96-8.02 (m, 2H), 8.50 (d, J=8.2 Hz, 1H), 8.71 (t, J=5.6 Hz, 1H), 8.90 (d, J=4.1 Hz, 1H), 9.34 (brs, 1H); HRMS (ESI) m/z (M+H)^+ C21H24N3O2, 350.1867. found 350.1863.

For assay [2], the system named is HSV-1. The assay can be described thus: HSV-1 ICP4 protein levels in infected HeLa cells (quantitative western blot). The class given is cell-based. The conditions noted are these: increasing concentrations of DMOG, HSV-1 0.1 PFU/cell 3 hrs, FIG. 6. The procedure:
HSV-1 IE protein levels of ICP4 decrease in cells infected in the presence of DMOG. HeLa cells were infected with HSV-1 at 0.1 PFU/cell for 3 hrs in the presence of increasing concentrations of DMOG. Cells were harvested and the levels of viral IE proteins (ICP4 shown) were determined by quantitative western blot analyses. As the concentration of DMOG is increased, the levels of ICP4 decrease (FIG. 6).
On the technique in general: A western blot detects proteins with antibodies after separation by electrophoresis.

A further assay has as its system HSV-1 IE promoters. Kind of assay: ChIP of H3K9me3 / histone H3 on HSV-1 IE promoters in HeLa cells. The format is cell-based. The conditions noted are these: 2 mM DMOG 4 hours before infection; FIG. 8. How it is done:
Hela cells were pretreated with 2 mM DMOG for 4 hours prior to infection. Cells were infected with 0.1 pfu/cell of HSV-1 for 3 hrs. Standard Chromatin-Immunoprecipitation procedures were preformed (Liang, Vogel, Narayanan, Peng & Kristie, 2009, Nature Med 15:1312-17) to determine the levels of total histone H3 or tri-methylated histone H3 associated with the indicated viral IE promoters.

The next assay concerns CMV. Kind of assay: CMV IE gene expression in HFF cells. The format is cell-based. The conditions noted are these: increasing concentration of DMOG, FIG. 9. The text has this: CMV IE gene expression (IE1 and UL37) and control TBP (Tata binding Protein) in the presence of increasing concentrations of DMOG were also studied (FIG. 9). HFF were pretreated with the indicated concentration of DMOG for 3.5 hrs and infected with CMV for 4 hrs. Total RNA was extracted, reverse-transcribed, and cDNAs were quantitated by qPCR using primers to viral IE genes or control genes.

Assay [3] has as its system HSV-1. Kind of assay: HSV-1 lytic viral yields from HFF cells. The format is cell-based. The note with it: HFF pretreated 5 hrs, HSV-1 0.1 pfu/cell 24 hrs; FIG. 10. The procedure:
FIG. 14 is a bar graph showing viral yields from HFF cells treated with DMSO or ML324 for 3 hours and infected with HSV-1 (0.1 PFUper cell) for 24 hours in the presence of the drugs. *P<0.004, one-way ANOVA with Dunnett's post hoc test. Data are means±SEM.
HSV-1 lytic viral yields decrease in the presence of DMOG (FIG. 10). HFF cells were pretreated with DMSO control or JMJD2 inhibitor DMOG for 5 hrs and infected with 0.1 pfu/cell of HSV-1 for 24 hrs in the presence of DMSO or DMOG. The yield of infectious virus derived from each treatment were determined by tittering on Vero cells according to standard procedures.

The test system of assay [4] is HSV-1. The format is cell-based, Balb/c mice. Also noted: reduction of viral reactivation (viral yield): unit of the concentration uncertain. How it is done: FIG. 18 is a dot plot showing latently infected ganglia that were explanted in the presence of DMSO, ACV (100 mM), or ML324 (50 mM) for 48 hrs. Viral yields were determined from one half of each ganglia at 48 hrs (DMSO, ACV, ML324) and from the other half of each ganglia after drug reversal for an additional 72 hrs (ACV-R, ML324-R) [Wilcoxon matched pairs signed rank test, ACV vs ACV-R n=8, ML324 vs ML324-R n=10]. Data are means±SEM.
FIG. 19 is a dot plot showing viral yields from HSV-1 latently infected trigeminal ganglia that were explanted in the presence of DMSO, or 2 mM DMOG or 50 mM ML324 for 48 hours (DMSO versus DMOG: P=0.0015, Wilcoxon matched-pairs signed rank test; n=12; DMSO versus ML324: P<0.0001; n=20). Data are means±SEM.
Viral yields decrease from HSV-1 latently infected ganglia explanted in the presence of LSD1 or JMJD2 inhibitors (FIG. 11). Balb/c mice were infected with 5×10^6 PFU HSV-1 (strain F) per eye after corneal scarification. Latently infected mice were sacrificed 45 days post clearance of the primary infection and trigeminal ganglia were rapidly explanted into culture in the presence of 2 mM DMOG, 2 mM TCP, or control (DMSO or ACV, acyclovir) for 48 hours. Post explant incubation, the ganglia were homogenized and briefly sonicated. The reactivated viral yield of each ganglia was determined by titering the clarified supernatant on Vero cells. Statistical comparisons were made using Wilcoxon signed rank test (paired ganglia) with a statistical significance of <0.05. Each data point was the result of a single ganglia divided and treated in the presence and absence of DMSO and DMOG or DMSO and TCP. Therefore, a Wilcoxon signed rank test was used to assess differences between each treated and untreated sample. The significant difference between DMSO control and DMOG was p=0.0018. This test used an exact p-value for small sample sizes with an a level of 0.05. n=20. Analyses were made using Prism (V5.0a) and are expressed as the mean+/−s.e.m.

Assay [5] has as its system HSV-1. Kind of assay: IE mRNA levels in explanted latently infected ganglia. The format is cell-based, mice. The conditions noted are these: 7 hours post explant; ICP4 and ICP27 mRNA; FIG. 12. How it is done: Total RNA was isolated and subjected to reverse transcription. The resulting cDNAs were analyzed for viral Immediate Early ICP4 and ICP27 mRNAs relative to an infected cell standard by nested or qPCR. In accordance with an embodiment of the invention, DMOG reduces the levels of viral mRNAs in explanted/reactivated ganglia.
IE gene transcription is repressed in explanted latently infected sensory ganglia in the presence of DMOG (FIG. 12). Total RNA was extracted from ganglia of latently infected mice explanted in the presence of control ACV or DMOG for 7 hours. Random primed cDNA was produced from total RNA using RNAqueous-4PCR and RETROscript (Ambion, Austin, Tex., USA) according to the manufacturer's recommendations. cDNAs were quantitated by nested PCR or qPCR using primers specific for the HSV-1 ICP4 and ICP27 IE mRNAs.

Regarding `COC(=O)CNC(=O)C(=O)OC` [DMOG, N-methoxyoxoacetyl-glycine methyl ester], in the assay with HSV-1 [1] (HSV-1 0.1 PFU/cell 3 hrs), the “mRNA levels of ICP4 and ICP27” value is listed as “decrease”. In the assay with HSV-1 [1], the “control mRNA (s15) level decrease” value is “does not”. Also, in the assay on HSV-1 [2], the “levels of ICP4 protein” value was “decrease”. For the same molecule, the “repressive chromatin (H3K9me3, H3) on HSV-1 IE promoters” value in the assay with HSV-1 IE promoters is given as “accumulation of repressive chromatin”. Besides, in the assay with CMV, the “control mRNA (TBP) level decrease” value is listed as “does not”. For the same molecule, the “CMV IE mRNA levels (IE1/IE7 and UL37)” value in the assay on CMV (HFF pretreated 3.5 hrs, CMV 4 hrs) is “decrease”. Also, the “HSV-1 lytic viral yields” value in the assay with HSV-1 [3] was “decrease”. In addition, in the assay on HSV-1 [4] (2 mM DMOG, 2 mM TCP or ACV, 48 hours, FIG. 11), the “viral yield from explanted latently infected ganglia” value was “decreases”. Moreover, the “reduction of viral reactivation (viral yield)” value in the assay with HSV-1 [4] (2 (unit uncertain), 48 hours explant, FIG. 19) was about 1.5 log. In the assay on HSV-1 [5], the “IE gene transcription in explanted latently infected sensory ganglia” value is given as “repressed”.
